Assay results published in patent US20060009431A1, “Nitrosated and nitrosylated compounds, compositions and methods use” (NitroMed, Inc., priority 2003, published 2006).
Read-outs that look alike come from different tables or passages of the source.

How the values were obtained:
[1] = test system: human coronary artery smooth muscle cells (CASMC); assay: Vascular smooth muscle cell (SMC) antiproliferation assay; assay type: cell-based; details: viable cell count (Trypan Blue exclusion) ~68 hours after compound addition
Description: Suppression of Proliferation of Human Coronary Artery Smooth Muscle Cells (CASMC)
Vascular Smooth Muscle Cell (SMC) Antiproliferation Assay
The cells used in this assay were human coronary artery smooth muscle cells (CASMC) supplied by Clonetics Corp. (San Diego, Calif.). They were maintained in SmGM-2 growth medium (Clonetics Corp.), which consisted of modified MCDB 131 medium supplemented with 5% (v/v) fetal bovine serum (FBS), 0.5 ng/mL human recombinant epidermal growth factor (EGF), 2 ng/mL human recombinant fibroblast growth factor (FGF), 5 μg/mL bovine insulin, 50 μg/mL gentamicin sulfate, and 50 ng/mL amphotericin B under humidified 95% air-5% CO2 at 37° C. Cells were used for experiments up to about 17 cumulative population doublings (i.e., passage 9); at this age they still stained positive for smooth muscle actin, a protein marker for smooth muscle cells.
For the SMC antiproliferation assay, the cells were seeded at 3×10^4 viable cells in 2 mL of SmGM-2 medium per well of a Corning 24 tissue culture well plate (Corning, N.Y.). Stock solutions of the test compounds were prepared just prior to addition to the cells by dissolving in DMSO at a concentration of 1000 times the highest concentration to be assayed. This stock solution was diluted, as required, with DMSO to lower concentrations. On the same day the cells were seeded, but after they had attached and spread out (about 3 hours), each test compound in varying concentrations (2 μL of the diluted stock solutions) was added to four replicate wells (n=4) for each concentration. Control cultures received 2 μL of DMSO per well (n=4). On the following morning, the cultures were examined microscopically and their condition recorded. On the third day after test compound addition (˜68 hours), the cultures were examined microscopically again and the viable cells counted with an hemacytometer following trypsinization with 0.25% trypsin-1 mM EDTA. Trypan Blue dye exclusion was used to discriminate between viable and dead cells. The results were usually presented as % of the control viable cell count (mean±SEM) and were used to determine the IC50 for the inhibition of proliferation of vascular smooth muscle cells.

[2] = n=4, read-out: IC 50 for the inhibition of proliferation of vascular smooth muscle cells, Non-nitrosated and/or Non-nitrosylated Compound
[3] = Homo sapiens, n=4, read-out: IC 50 for the inhibition of proliferation of vascular smooth muscle cells, Nitrosated and/or Nitrosylated Compound

SMILES	IC50 [1, 2] [µM]	melting point [°C]	IC50 [1, 3] [µM]
C[C@]12CC[C@@H]3c4ccc(OC(=O)CCC(=O)OCCC5(S)C6CC7CC(C6)CC5C7)cc4CC[C@H]3[C@@H]1CC[C@@H]2O (stereo partly drawn) [Example 30, (1S,11S,14S,15S,10R)-14-Hydroxy-15-methyltetracyclo(8.7.0.0<2,7>0.0<11,15>)heptadeca-2,4,6-trien-5-yl 2-(2-sulfanyladamantan-2-yl)ethyl butane-1,4-dioate]	4	133 to 136	
CC(C)(S)CNC(=O)CO/N=C1\C[C@@H]2[C@H](CC[C@]3(C)[C@@H](O)CC[C@@H]23)c2ccc(O)cc21 [Example 47, 2-(((1S,11S,14S,15S,10R)-5,14-dihydroxy-15-methyltetracyclo(8.7.0.0<2,7>0.0<11,15>)heptadeca-2,4,6-trien-8-ylidene)azamethoxy)-N-(2-methyl-2-sulfanylpropyl)acetamide]	> 80	87 to 90	
C[C@]12CC[C@@H]3c4ccc(O)cc4/C(=N/OCC(=O)OCCC4(S)C5CC6CC(C5)CC4C6)C[C@H]3[C@@H]1CC[C@@H]2O (stereo partly drawn) [Example 46, 2-(2-sulfanyladamantan-2-yl)ethyl 2-(((1S,11S,14S,15S,10R)-5,14-dihydroxy-15-methyltetracyclo(8.7.0.0<2,7>0.0<11,15>)heptadeca-2,4,6-trien-8-ylidene)azamethoxy)acetate]	5 to 12	85 to 90	
CC(C)(CNC(=O)COc1ccc2c(c1)CC[C@@H]1[C@@H]2CC[C@]2(C)[C@@H](O)CC[C@@H]12)SN=O [Example 42, 2-((1S,11S,14S,15S,10R)-14-Hydroxy-15-methyltetracyclo(8.7.0.0<2,7>0.0<11,15>)heptadeca-2,4,6-trien-5-yloxy)-N-(2-methyl-2-(nitrosothio)propyl)acetamide]		40	9
C[C@]12CC[C@@H]3c4ccc(OCC(=O)OCCC5(SN=O)C6CC7CC(C6)CC5C7)cc4CC[C@H]3[C@@H]1CC[C@@H]2O (stereo partly drawn) [Example 36b, 2-(2-(Nitrosothio)adamantan-2-yl)ethyl 2-((1S,11S,14S,15S,10R)-14-hydroxy-15-methyltetracyclo(8.7.0.0<2,7>0.0<11,15>)heptadeca-2,4,6-trien-5-yloxy)acetate]		48 to 50	5
C[C@]12CC[C@@H]3c4ccc(O)cc4/C(=N/OCC(=O)OCCC4(SN=O)C5CC6CC(C5)CC4C6)C[C@H]3[C@@H]1CC[C@@H]2O (stereo partly drawn) [Example 37, 2-(2-(Nitrosothio)adamantan-2-yl)ethyl 2-(((1S,11S,14S,15S,10R)-5,14-dihydroxy-15-methyltetracyclo(8.7.0.0<2,7>0.0<11,15>)heptadeca-2,4,6-trien-8-ylidene)azamethoxy)acetate]		75 to 80	1.4 to 2
COc1ccc(C=C2c3ccccc3C(=NOCC(=O)NCC(C)(C)SN=O)c3ccccc32)cc1O [Example 51, 2-((10-((3-Hydroxy-4-methoxyphenyl)methylene)(9-anthrylidene))-azamethoxy)-N-(2-methyl-2-(nitrosothio)propyl)acetamide]		143 to 145	10
C[C@]12CC[C@@H]3c4ccc(OC(=O)CCC(=O)O[C@H]5CO[C@H]6[C@@H]5OC[C@H]6O[N+](=O)[O-])cc4CC[C@H]3[C@@H]1CC[C@@H]2O [Example 32b, (1S,11S,14S,15S,10R)-14-Hydroxy-15-methyltetracyclo(8.7.0.0<2,7>0.0<11,15>)heptadeca-2,4,6-trien-5-yl(1S,2S,5S,6R)-6-(nitrooxy)-4,8-dioxabicyclo(3.3.0)oct-2-yl butane-1,4-dioate]		163 to 165	8
C[C@]12CC[C@@H]3c4ccc(OC(=O)c5ccccc5)cc4CC[C@H]3[C@@H]1CC[C@@H]2OC(=O)CCC(=O)O[C@H]1CO[C@H]2[C@@H]1OC[C@H]2O [Example 57, (1S,11S,14S,15S,10R)-15-Methyl-5-phenylcarbonyloxytetracyclo(8.7.0.0<2,7>0.0<11,15>)heptadeca-2,4,6-trien-14-yl(1S,2S,5R,6R)-6-hydroxy-4,8-dioxabicyclo(3.3.0)oct-2-yl butane-1,4-dioate]	> 80	136 to 137	
C[C@]12CC[C@@H]3c4ccc(OC(=O)CCC(=O)O[C@H]5CO[C@H]6[C@@H]5OC[C@H]6O)cc4CC[C@H]3[C@@H]1CC[C@@H]2O [Example 58, (1S,11S,14S,15S,10R)-14-Hydroxy-15-Methyltetracyclo(8.7.0.0<2,7>0.0<11,15>)heptadeca-2,4,6-trien-5-yl(1S,2S,5R,6R)-6-hydroxy-4,8-dioxabicyclo(3.3.0)oct-2-yl butane-1,4-dioate]	12	79 to 80	
